Our source for the T/C values is PubChem BioAssay AID330 (DTP/NCI, 2004).

Several values for one entry are separate records, joined by “and”; a condition that tells them apart may be missing. Equal entries are not always repeated. Inconclusive results and toxic doses are left out.

This assay deals with P388 leukemia ip, CD2F1 mice, survival T/C. The assay can be described thus: NCI In Vivo Anticancer Drug Screen. Data for tumor model P388 Leukemia (intraperitoneal) in CD2F1 (CDF1) mice. Particulars: endpoint: median survival time, higher = longer survival. Put shortly:
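Mice carrying the transplanted tumor received test compound or vehicle. Survival was recorded in each group, and the value is the treated-group measurement divided by that of the vehicle-treated control group.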

[1] abbreviates: dose: 12.5 mg/kg/injection, schedule: Q01DX005 (ip), vehicle: saline with Tween-80.
Setting [2] is: dose: 60.0 mg/kg/injection, schedule: Q01DX005 (ip), vehicle: Klucel (hydroxypropylcellulose) (HPC).
Setting [3] is: dose: 120.0 mg/kg/injection, schedule: Q01DX005 (ip), vehicle: Klucel (hydroxypropylcellulose) (HPC).
The mark [4] stands for this setting: dose: 240.0 mg/kg/injection, schedule: Q01DX005 (ip), vehicle: Klucel (hydroxypropylcellulose) (HPC).
The mark [5] stands for this setting: dose: 50.0 mg/kg/injection, schedule: Q01DX009 (ip), vehicle: Klucel (hydroxypropylcellulose) (HPC).
The mark [6] stands for this setting: dose: 100.0 mg/kg/injection, schedule: Q01DX009 (ip), vehicle: Klucel (hydroxypropylcellulose) (HPC).
The mark [7] stands for this setting: dose: 200.0 mg/kg/injection, schedule: Q01DX009 (ip), vehicle: Klucel (hydroxypropylcellulose) (HPC).
Setting [8] is: dose: 100.0 mg/kg/injection, schedule: Q04DX003 (ip), vehicle: saline with Tween-80.
Where [9] appears, read: dose: 200.0 mg/kg/injection, schedule: Q04DX003 (ip), vehicle: saline with Tween-80.
Setting [10] is: dose: 50.0 mg/kg/injection, schedule: Q01DX005 (ip), vehicle: saline.
[11] abbreviates: dose: 100.0 mg/kg/injection, schedule: Q01DX005 (ip), vehicle: saline.
Setting [12] is: dose: 200.0 mg/kg/injection, schedule: Q01DX005 (ip), vehicle: saline.
[13] abbreviates: dose: 100.0 mg/kg/injection, schedule: Q01DX001 (ip), vehicle: saline with Tween-80.
Setting [14] is: dose: 200.0 mg/kg/injection, schedule: Q01DX001 (ip), vehicle: saline with Tween-80.
The mark [15] stands for this setting: dose: 50.0 mg/kg/injection, schedule: Q01DX005 (ip), vehicle: saline with Tween-80.

As to `C1CC2CC1C13OC1CC1OC213` (stereo unspecified), the T/C runs as follows: (dose: 100.0 mg/kg/injection, schedule: Q04DX002 (ip), vehicle: Klucel (hydroxypropylcellulose) (HPC)) 104 % of control; (dose: 200.0 mg/kg/injection, schedule: Q04DX002 (ip), vehicle: Klucel (hydroxypropylcellulose) (HPC)) 105 % of control; (dose: 400.0 mg/kg/injection, schedule: Q04DX002 (ip), vehicle: Klucel (hydroxypropylcellulose) (HPC)) 111 % of control.

`CCOC(=O)Nc1cc2c(c(N)n1)N=C(c1ccc(C)c(C)c1)CN2`: the T/C was 122 % of control (dose: 3.12 mg/kg/injection, schedule: Q01DX005 (ip), vehicle: saline with Tween-80) and 88 % of control under setting [1].

On to `COCn1ncnc1C(=O)c1ccccc1`, for which the T/C reads like this: (dose: 50.0 mg/kg/injection, schedule: Q01DX009 (ip), vehicle: saline with Tween-80) 97 % of control; (dose: 100.0 mg/kg/injection, schedule: Q01DX009 (ip), vehicle: saline with Tween-80) 98 % of control; (dose: 200.0 mg/kg/injection, schedule: Q01DX009 (ip), vehicle: saline with Tween-80) 92 % of control.

Turning to `COc1cc(=O)cc2n(-c3cc(OC)c(O)c(OC)c3)c3ccccc3nc1-2`, the T/C was 100 % of control (dose: 12.5 mg/kg/injection, schedule: Q01DX009 (ip), vehicle: saline); 104 % of control (dose: 25.0 mg/kg/injection, schedule: Q01DX009 (ip), vehicle: saline); 102 % of control and 88 % of control (dose: 50.0 mg/kg/injection, schedule: Q01DX009 (ip), vehicle: saline); 98 % of control (dose: 200.0 mg/kg/injection, schedule: Q01DX009 (ip), vehicle: saline).

With `CCOC(=O)C(CC)(COCc1ccccc1)C(=O)OCC`, the T/C reads like this: (dose: 50.0 mg/kg/injection, schedule: Q01DX009 (ip), vehicle: other) 100 % of control; (dose: 100.0 mg/kg/injection, schedule: Q01DX009 (ip), vehicle: other) 100 % of control; (dose: 200.0 mg/kg/injection, schedule: Q01DX009 (ip), vehicle: other) 100 % of control.

For the compound `CC(=O)OC1CC(/C=C/C(=O)OC2=C(O)CCC2=O)=CN1` (stereo unspecified), the T/C was 100 % of control (dose: 4.37 mg/kg/injection, schedule: Q01DX001 (ip), vehicle: Klucel (hydroxypropylcellulose) (HPC)); 99 % of control (dose: 8.75 mg/kg/injection, schedule: Q01DX001 (ip), vehicle: Klucel (hydroxypropylcellulose) (HPC)); 102 % of control (dose: 17.5 mg/kg/injection, schedule: Q01DX001 (ip), vehicle: Klucel (hydroxypropylcellulose) (HPC)); 105 % of control (dose: 35.0 mg/kg/injection, schedule: Q01DX001 (ip), vehicle: Klucel (hydroxypropylcellulose) (HPC)).

Consider `CC1CCN(C(=O)Nc2c(Cl)cccc2Cl)CC1`, for which the T/C runs as follows: under setting [2], 99 % of control; under setting [3], 101 % of control; under setting [4], 94 % of control.

Consider `O=[N+]([O-])c1cc[n+]([O-])c(Cl)c1`, for which the T/C by setting is: (dose: 25.0 mg/kg/injection, schedule: Q01DX009 (ip), vehicle: Klucel (hydroxypropylcellulose) (HPC)) 91 % of control; under setting [5], 96 % of control; under setting [6], 94 % of control; under setting [7], 101 % of control.

As to `Cc1cncn2c(C)nnc12`, the T/C runs as follows: (dose: 100.0 mg/kg/injection, schedule: Q04DX003 (ip), vehicle: saline) 100 % of control; (dose: 200.0 mg/kg/injection, schedule: Q04DX003 (ip), vehicle: saline) 104 % of control.

Turning to `Nc1nc(N)c(Cl)c(Nc2cccc(Cl)c2)n1`, where the note is “dose: 6.25 mg/kg/injection, schedule: Q01DX001 (ip), vehicle: saline with Tween-80”, the T/C is 94 % of control.

As to `CC(C)CNS(=O)(=O)c1ncnc2nc[nH]c12`, the T/C was 100 % of control under setting [8] and 87 % of control under setting [9].

For `Cc1cn(CCCSCC2OC3OC4C(CO)OC(OC5C(CO)OC(OC6C(CO)OC(OC7C(CO)OC(OC8C(CO)OC(OC9C(CO)OC(OC2C(O)C3O)C(O)C9O)C(O)C8O)C(O)C7O)C(O)C6O)C(O)C5O)C(O)C4O)c(=O)[nH]c1=O` (stereo unspecified), the T/C was 103 % of control under setting [10], 100 % of control under setting [11] and 98 % of control under setting [12].

As to `Cc1noc(NC(=O)NC(=O)c2c(F)cccc2F)c1C`, the T/C is 99 % of control (dose: 50.0 mg/kg/injection, schedule: Q04DX002 (ip), vehicle: saline with Tween-80); 99 % of control (dose: 100.0 mg/kg/injection, schedule: Q04DX002 (ip), vehicle: saline with Tween-80); 100 % of control (dose: 200.0 mg/kg/injection, schedule: Q04DX002 (ip), vehicle: saline with Tween-80).

On to `Oc1ccccc1O.[O-]c1ccccc1[O-].[O-]c1ccccc1[O-].[O]=[V+2]`, for which the T/C is 100 % of control (dose: 5.0 mg/kg/injection, schedule: Q01DX009 (ip), vehicle: saline); 95 % of control (dose: 5.0 mg/kg/injection, schedule: Q04DX003 (ip), vehicle: saline); 90 % of control (dose: 10.0 mg/kg/injection, schedule: Q01DX009 (ip), vehicle: saline); 118 % of control (dose: 10.0 mg/kg/injection, schedule: Q04DX003 (ip), vehicle: saline); 100 % of control (dose: 20.0 mg/kg/injection, schedule: Q04DX003 (ip), vehicle: saline).

For `COc1cc(C(=O)C[n+]2ccccc2)ccc1O`, the T/C is 100 % of control (dose: 50.0 mg/kg/injection, schedule: Q04DX003 (ip), vehicle: saline with Tween-80); 100 % of control under setting [8]; 100 % of control under setting [9].

With `Cc1ccc(C(=Nc2ccccc2Cl)N(O)c2ccccc2)cc1`, the T/C (dose: 50.0 mg/kg/injection, schedule: Q01DX005 (ip), vehicle: Klucel (hydroxypropylcellulose) (HPC)) is 107 % of control; the T/C (dose: 100.0 mg/kg/injection, schedule: Q01DX005 (ip), vehicle: Klucel (hydroxypropylcellulose) (HPC)) was 102 % of control; the T/C (dose: 200.0 mg/kg/injection, schedule: Q01DX005 (ip), vehicle: Klucel (hydroxypropylcellulose) (HPC)) was 95 % of control.

With `[N-]=[N+]=NC(=O)c1cnn(Cc2ccccc2)c1N`, the T/C was 103 % of control under setting [13] and 101 % of control under setting [14].

For `O=C1OCC(c2ccno2)=C1O`, the T/C reads like this: under setting [2], 100 % of control; under setting [3], 100 % of control; under setting [4], 104 % of control.

On to `CN(C)c1ccc(N=NN=c2n(C)c3ccccc3n2C)c(Cl)c1`, for which the T/C was 103 % of control (dose: 6.25 mg/kg/injection, schedule: Q01DX005 (ip), vehicle: saline with Tween-80); 106 % of control and 109 % of control under setting [1]; 113 % of control and 115 % of control (dose: 25.0 mg/kg/injection, schedule: Q01DX005 (ip), vehicle: saline with Tween-80); 117 % of control under setting [15].

On to `CCOC(=O)CC(SCP(=O)(OCC)OCC)C(=O)OCC` (stereo unspecified), for which the T/C by setting is: (dose: 60.0 mg/kg/injection, schedule: Q01DX005 (ip), vehicle: saline with Tween-80) 101 % of control; (dose: 120.0 mg/kg/injection, schedule: Q01DX005 (ip), vehicle: saline with Tween-80) 95 % of control; (dose: 240.0 mg/kg/injection, schedule: Q01DX005 (ip), vehicle: saline with Tween-80) 93 % of control.

As to `COP(=O)(OC)C1(Nc2ccccc2)C2CC3CC(C2)CC1C3` (stereo unspecified), the T/C under setting [13] is 105 % of control; the T/C under setting [14] is 110 % of control; the T/C (dose: 400.0 mg/kg/injection, schedule: Q01DX001 (ip), vehicle: saline with Tween-80) was 102 % of control.

As to `CCN(CC)CCN(Cc1ccccc1)C(=O)C1c2ccccc2Oc2ccccc21`, the T/C under setting [15] is 102 % of control and the T/C (dose: 100.0 mg/kg/injection, schedule: Q01DX005 (ip), vehicle: saline with Tween-80) is 105 % of control.

As for `CN(C)CCCN1CC2CC=CCC2C1` (stereo unspecified), the T/C under setting [10] was 99 % of control, the T/C under setting [11] is 99 % of control and the T/C under setting [12] was 100 % of control.

For the compound `N#CCCCCCN1CCN(c2cccc(Cl)c2)CC1`, the T/C reads like this: under setting [5], 100 % of control; under setting [6], 100 % of control; under setting [7], 96 % of control.
